Reference: ChEMBL document CHEMBL3044693, “Synthesis and antihyperlipidemic activity of novel condensed 2-fluoromethylpyrimidines” (2013)

What was measured:
Assay type in all cases: functional
[1] = tested on: Rattus norvegicus; test: Antihyperlipidemic activity in high fat diet fed Sprague-Dawley Rattus norvegicus (rat) assessed as decrease in serum total cholesterol level at 50 mg/kg, po daily for 7 days measured on day 8 relative to untreated control; set-up: scale not given: the % may be the effect or the level left
[2] = tested on: Rattus norvegicus; test: Antihyperlipidemic activity in high fat diet fed Sprague-Dawley Rattus norvegicus (rat) assessed as decrease in serum VLDL level at 50 mg/kg, po daily for 7 days measured on day 8 relative to untreated control; set-up: scale not given: the % may be the effect or the level left
[3] = tested on: Rattus norvegicus; test: Antihyperlipidemic activity in high fat diet fed Sprague-Dawley Rattus norvegicus (rat) assessed as increase in serum HDL level at 50 mg/kg, po daily for 7 days measured on day 8 relative to untreated control
[4] = tested on: Rattus norvegicus; test: Antihyperlipidemic activity in high fat diet fed Sprague-Dawley Rattus norvegicus (rat) assessed as decrease in serum triglyceride level at 50 mg/kg, po daily for 7 days measured on day 8 relative to untreated control; set-up: scale not given: the % may be the effect or the level left
[5] = tested on: Rattus norvegicus; test: Antihyperlipidemic activity in high fat diet fed Sprague-Dawley Rattus norvegicus (rat) assessed as decrease in serum LDL level at 50 mg/kg, po daily for 7 days measured on day 8 relative to untreated control; set-up: scale not given: the % may be the effect or the level left
[6] = tested on: Rattus norvegicus; test: Antihyperlipidemic activity in high fat diet fed Sprague-Dawley Rattus norvegicus (rat) assessed as coronary risk index at 50 mg/kg, po daily for 7 days measured on day 8 (reference value: 5.21 +/-1.76 no unit)
[7] = tested on: Rattus norvegicus; test: Antihyperlipidemic activity in high fat diet fed Sprague-Dawley Rattus norvegicus (rat) assessed as atherogenic index at 50 mg/kg, po daily for 7 days measured on day 8 (reference value: 4.15 +/-0.23 no unit)
[8] = tested on: Rattus norvegicus; test: Antihyperlipidemic activity in high fat diet fed Sprague-Dawley Rattus norvegicus (rat) assessed as increase in serum HDL level at 1 mg/kg, po daily for 7 days measured on day 8 relative to untreated control
[9] = tested on: Rattus norvegicus; test: Antihyperlipidemic activity in high fat diet fed Sprague-Dawley Rattus norvegicus (rat) assessed as decrease in serum VLDL level at 1 mg/kg, po daily for 7 days measured on day 8 relative to untreated control; set-up: scale not given: the % may be the effect or the level left
[10] = tested on: Rattus norvegicus; test: Antihyperlipidemic activity in high fat diet fed Sprague-Dawley Rattus norvegicus (rat) assessed as atherogenic index at 1 mg/kg, po daily for 7 days measured on day 8 (reference value: 4.15 +/-0.23 no unit)
[11] = tested on: Rattus norvegicus; test: Antihyperlipidemic activity in high fat diet fed Sprague-Dawley Rattus norvegicus (rat) assessed as decrease in serum total cholesterol level at 1 mg/kg, po daily for 7 days measured on day 8 relative to untreated control; set-up: scale not given: the % may be the effect or the level left
[12] = tested on: Rattus norvegicus; test: Antihyperlipidemic activity in high fat diet fed Sprague-Dawley Rattus norvegicus (rat) assessed as decrease in serum triglyceride level at 1 mg/kg, po daily for 7 days measured on day 8 relative to untreated control; set-up: scale not given: the % may be the effect or the level left
[13] = tested on: Rattus norvegicus; test: Antihyperlipidemic activity in high fat diet fed Sprague-Dawley Rattus norvegicus (rat) assessed as coronary risk index at 1 mg/kg, po daily for 7 days measured on day 8 (reference value: 5.21 +/-1.76 no unit)
[14] = tested on: Rattus norvegicus; test: Antihyperlipidemic activity in high fat diet fed Sprague-Dawley Rattus norvegicus (rat) assessed as decrease in serum LDL level at 1 mg/kg, po daily for 7 days measured on day 8 relative to untreated control; set-up: scale not given: the % may be the effect or the level left

Row | SMILES | Activity [1] [%] | Activity [2] [%] | Activity [3] [%] | Activity [4] [%] | Activity [5] [%] | Activity [6] | AI [7] | Activity [8] [%] | Activity [9] [%] | AI [10] | Activity [11] [%] | Activity [12] [%] | Activity [13] | Activity [14] [%]
1 | O=c1[nH]c(CF)nc2sc3c(c12)CCCC3 | 40.44 | 50.71 | 58.27 | 50.71 | 65.82 | 2.39 | 0.96 | – | – | – | – | – | – | –
2 | CCOC(=O)C1=C(C)C2C(=O)N=C(CF)N=C2S1 (stereo not drawn) | 56.19 | 57.76 | 73.48 | 57.77 | 86.92 | 1.69 | 0.31 | – | – | – | – | – | – | –
3 | Cc1sc2nc(CF)[nH]c(=O)c2c1C | 32.48 | 37.83 | 44.68 | 37.8 | 45.91 | 3.14 | 1.46 | – | – | – | – | – | – | –
4 | O=c1[nH]c(CF)nc2scc(-c3ccccc3)c12 | 37.45 | 49.37 | 46.43 | 49.36 | 56.47 | 2.63 | 1.13 | – | – | – | – | – | – | –
5 | Cc1sc2nc(CF)[nH]c(=O)c2c1-c1ccccc1 | 33.18 | 39.77 | 41.31 | 39.74 | 48.7 | 3.18 | 1.51 | – | – | – | – | – | – | –
6 | O=c1[nH]c(CF)nc2scc(-c3ccc(Cl)cc3)c12 | 44.99 | 51.91 | 79.63 | 51.91 | 72.47 | 2.05 | 0.63 | – | – | – | – | – | – | –
7 | O=c1[nH]c(CF)nc2ccccc12 | 38.24 | 46.8 | 52.4 | 46.19 | 57.31 | 2.75 | 1.2 | – | – | – | – | – | – | –
8 | COc1cc2nc(CF)[nH]c(=O)c2cc1OC | 26.27 | 45.85 | 62.44 | 45.14 | 40.26 | 3.16 | 1.53 | – | – | – | – | – | – | –
9 | O=C1[C@H](CC[C@H](O)c2ccc(F)cc2)[C@@H](c2ccc(O)cc2)N1c1ccc(F)cc1 [EZETIMIBE] | – | – | – | – | – | – | – | 74.96 | 52.22 | 0.58 | 47.57 | 52.23 | 2.01 | 75.41
